Values of other authors as cited in patent US20040062739A1, “Use of carbohydrates to improve skin barrier function” (SOCIETE L'OREAL S.A., priority 2000, published 2004).

Legend:
Design in all cases: key: −: no activity; ε, +, ++: specific activity; ε, +, ++: specific activity; ε, +, ++: specific activity
Details in all cases: glycosidase sold by Clonezyme; cited from earlier work
GLY-07 = tested on: GLY-07
GLY-04 = tested on: GLY-04
GLY-03 = tested on: GLY-03
GLY-08 = tested on: GLY-08
GLY-10 = tested on: GLY-10
GLY-06 = tested on: GLY-06
GLY-05 = tested on: GLY-05
GLY-09 = tested on: GLY-09
GLY-02 = tested on: GLY-02
GLY-01 = tested on: GLY-01

SMILES | substrate specificity GLY-07 (GLY-07) | substrate specificity GLY-04 (GLY-04) | substrate specificity GLY-03 (GLY-03) | substrate specificity GLY-08 (GLY-08) | substrate specificity GLY-10 (GLY-10) | substrate specificity GLY-06 (GLY-06) | substrate specificity GLY-05 (GLY-05) | substrate specificity GLY-09 (GLY-09) | substrate specificity GLY-02 (GLY-02) | substrate specificity GLY-01 (GLY-01)
C[C@@H]1O[C@@H](O)[C@H](O)[C@H](O)[C@H]1O [α-L-rhamnose] | − | − | − | − | − | − | − | − | − | −
OC[C@H]1O[C@@H](O)[C@@H](O)[C@@H](O)[C@@H]1O [β-D-mannose] | + | − | − | − | − | + | − | + | ε | −
CC(=O)NC1C(O)CC(Oc2ccc([N+](=O)[O-])cc2)(C(=O)O)OC1C(O)C(O)CO [α-D-N-acetylneuramide] | − | − | − | − | − | − | − | − | − | −
CC(=O)NC1C(Oc2ccc([N+](=O)[O-])cc2)OC(CO)C(O)C1O [β-N-acetyl-D-glucosaminide] | − | − | − | − | − | − | − | − | − | −
OC[C@H]1O[C@H](O)[C@H](O)[C@@H](O)[C@H]1O [α-D-galactose] | − | − | − | − | + | − | − | − | − | −
C[C@@H]1O[C@H](O)[C@@H](O)[C@H](O)[C@@H]1O [β-L-fucose] | − | − | − | − | − | − | − | − | − | −
OC[C@H]1O[C@H](O)[C@@H](O)[C@@H](O)[C@@H]1O [α-D-mannose] | − | − | − | − | − | − | − | − | − | −
OC[C@H]1O[C@@H](O[C@H]2[C@H](O)[C@@H](O)[C@H](O)O[C@@H]2CO)[C@H](O)[C@@H](O)[C@H]1O [β-D-lactose] | ε | − | ε | − | − | + | − | − | + | −
OC[C@H]1O[C@@H](O)[C@H](O)[C@@H](O)[C@H]1O [β-D-galactose] | ε | + | ε | + | − | ε | + | − | ++ | −
C[C@H]1O[C@@H](O)[C@H](O)[C@@H](O)[C@H]1O [β-D-fucose] | ++ | ++ | ++ | + | − | ++ | ++ | ++ | ++ | −
O=C(O)[C@H]1O[C@@H](Oc2ccc([N+](=O)[O-])cc2)[C@H](O)[C@@H](O)[C@@H]1O [β-D-glucuronide] | ε | − | − | − | − | − | − | − | − | −
OC[C@H]1O[C@H](O[C@H]2[C@H](O)[C@@H](O)[C@H](O)O[C@@H]2CO)[C@H](O)[C@@H](O)[C@@H]1O [β-D-cellobiose] | + | ε | ε | ε | − | + |  | ε | ++ | −
